According to publication PMC10566733 (PLOS ONE, 2023):
“And” between values parts separate entries of the source, which are not always exact repeats. Equal entries are not always repeated.

Tests used:
[1] = test system: monolayer of bEnd.3 brain endothelial cells; details: 1000 μM TAT; Fig 5A
Procedure: (§1) Briefly, the cells were seeded onto 24-well culture inserts (Falcon Permeable Support for 24-well plate; cat. #353104), and one-half of the medium was replaced every other day, and the cells were cultured for 5 days prior to the performance of a permeability assay. On the day of the assay, the culture medium was replaced with serum-free DMEM with FITC-linked peptides or bovine serum albumin (Sigma).
Medium collected from cell culture in vitro (12 μl medium per culture) and tissue samples harvested from mice in vivo were denatured by boiling in lysis buffer, separated by electrophoresis, transferred onto PVDF membranes, and imaged after incubation in primary and secondary antibodies as described previously for in vitro [55] and in vivo [57] experiments. The following primary antibodies were used: anti-albumin (1:2000; GeneTex, cat. #102419, for the in vitro experiments; 1:5000; Abcam, cat. #ab106582, for the in vivo experiments) and anti-ɑ-tubulin (1:5000; GeneTex, cat. #GTX628802) antibodies, and the following secondary antibodies were used: anti-rabbit (1:5000; GeneTex, cat. #GTX213110-01), anti-mouse (1:1000; GeneTex, cat. #GTX213111-01), and anti-chicken (1:1000; Abcam, cat. #ab97135) antibodies.

[2] = test system: monolayer of bEnd.3 mouse brain endothelial cells; assay: Permeability across a monolayer of brain endothelial cells (in vitro BBB model); format: in vitro ADME; design: Diffusion of FITC-TAT across bEnd.3 monolayer / Diffusion of FITC-linked peptide across bEnd.3 monolayer / Diffusion of FITC-TAT across bEnd.3 monolayer, FITC-TAT + TAT / Diffusion of FITC-TAT across bEnd.3 monolayer, FITC-TAT + TATK/R>A: unit not given here; details: for Diffusion of FITC-TAT across bEnd.3 monolayer, FITC-TAT + TAT: FITC-TAT 10 μM coupled with non-FITC TAT 10 μM; for Diffusion of FITC-TAT across bEnd.3 monolayer, FITC-TAT + TAT / Diffusion of FITC-TAT across bEnd.3 monolayer, FITC-TAT + TATK/R>A / Diffusion of FITC-TAT across bEnd.3 monolayer / Diffusion of FITC-linked peptide across bEnd.3 monolayer: fluorescence spectrophotometry; for Diffusion of FITC-TAT across bEnd.3 monolayer, FITC-TAT + TATK/R>A: FITC-TAT 10 μM coupled with non-FITC TAT^K/R>A 10 μM; for Diffusion of FITC-TAT across bEnd.3 monolayer: bEnd.3 monolayer on Transwell, serum-free DMEM
[3] = endothelial monolayers absent; FITC-TAT 10 μM; Fig 1A
Procedure: as §1

[4] = diffusion time 0.1 h, individual cultures n = 3
[5] = diffusion time 12 h, individual cultures n = 3
[6] = diffusion time 24 h, individual cultures n = 3

Structure (SMILES): N=C(N)NCCC[C@H](NC(=O)[C@H](CCCNC(=N)N)NC(=O)[C@H](CCCNC(=N)N)NC(=O)[C@H](CCC(N)=O)NC(=O)[C@H](CCCNC(=N)N)NC(=O)[C@H](CCCNC(=N)N)NC(=O)[C@H](CCCCN)NC(=O)[C@H](CCCCN)NC(=O)[C@H](CCCNC(=N)N)NC(=O)CNC(=O)[C@@H](N)Cc1ccc(O)cc1)C(=O)O [TAT]
- Effect of TAT on the amount of albumin that crossed the monolayer [1]: significantly increased

Structure (SMILES): N=C(N)NCCC[C@H](NC(=O)[C@H](CCCNC(=N)N)NC(=O)[C@H](CCCNC(=N)N)NC(=O)[C@H](CCC(N)=O)NC(=O)[C@H](CCCNC(=N)N)NC(=O)[C@H](CCCNC(=N)N)NC(=O)[C@H](CCCCN)NC(=O)[C@H](CCCCN)NC(=O)[C@H](CCCNC(=N)N)NC(=O)CNC(=O)[C@H](Cc1ccc(O)cc1)NC(=S)Nc1ccc2c(c1)C(=O)OC21c2ccc(O)cc2Oc2cc(O)ccc21)C(=O)O [FITC-TAT]
- Diffusion of FITC-TAT from upper to lower chamber of Transwell inserts ([2]; 37°C, regardless of whether monolayers of brain endothelial cells were cultured on the membranes, Fig 1A and 1B): readily diffused across to the lower chamber
- Diffusion of FITC-TAT across bEnd.3 monolayer, FITC-TAT + TAT [2, 4]: 1.844 and 1.839 and 1.804
- Diffusion of FITC-TAT across bEnd.3 monolayer, FITC-TAT + TAT [2, 5]: 42.0052 and 42.275 and 41.3436
- Diffusion of FITC-TAT across bEnd.3 monolayer, FITC-TAT + TAT [2, 6]: 90.1666 and 89.6029 and 94.8903
- Diffusion of FITC-TAT across bEnd.3 monolayer, FITC-TAT + TATK/R>A [2, 4]: 1.736 and 1.755 and 1.705
- Diffusion of FITC-TAT across bEnd.3 monolayer, FITC-TAT + TATK/R>A [2, 5]: 41.331 and 40.0366 and 39.1388
- Diffusion of FITC-TAT across bEnd.3 monolayer, FITC-TAT + TATK/R>A [2, 6]: 85.9302 and 85.5824 and 85.3453
- Effect of the presence of non-FITC TAT or non-FITC TAT^K/R>A on permeability of the monolayer to FITC-TAT ([2]; FITC-TAT 10 μM with 10 μM competitor, Fig 3D): only marginally decreased
- Effect of NaN3 and 2-DG treatment regimens on ability of FITC-TAT to cross the monolayer ([2]; FITC-TAT 10 μM, NaN3 10 mM and 2-DG 6 mM, 1 h pre-treatment or 24 h, Fig 2B): neither treatment regimens had an effect
- Diffusion of FITC-TAT across bEnd.3 monolayer ([2]; FITC-TAT 10 μM, 4°C, diffusion time 0 h, individual cultures n = 10): 1.386 and 10.0745 and 1.495 and 1.465 and 7.9907 and 7.9 and 8.057 and 7.849 and 10.0907 and 10.1377
- Diffusion of FITC-TAT across bEnd.3 monolayer ([2]; FITC-TAT 10 μM, 4°C, diffusion time 0.5 h, individual cultures n = 10): 2.727 and 10.2694 and 1.946 and 2.6148 and 12.2754 and 11.4859 and 13.8266 and 14.9326 and 10.2588 and 10.1802
- Diffusion of FITC-TAT across bEnd.3 monolayer ([2]; FITC-TAT 10 μM, 4°C, diffusion time 1 h, individual cultures n = 10): 3.318 and 12.0592 and 3.998 and 4.153 and 14.099 and 14.1024 and 12.2279 and 14.4626 and 12.8546 and 12.5004
- Diffusion of FITC-TAT across bEnd.3 monolayer ([2]; FITC-TAT 10 μM, 4°C, diffusion time 2 h, individual cultures n = 10): 4.184 and 12.4226 and 4.5396 and 5.958 and 21.4454 and 17.4004 and 16.7345 and 14.5981 and 18.4195 and 13.6876
- Diffusion of FITC-TAT across bEnd.3 monolayer ([2]; FITC-TAT 10 μM, 4°C, diffusion time 4 h, individual cultures n = 10): 12.2948 and 22.4089 and 5.603 and 11.4776 and 26.9335 and 21.9034 and 18.3373 and 22.0326 and 23.9812 and 20.9146
- Diffusion of FITC-TAT across bEnd.3 monolayer ([2]; FITC-TAT 10 μM, 4°C, diffusion time 8 h, individual cultures n = 10): 23.6561 and 36.4429 and 7.1971 and 15.1917 and 28.8919 and 24.9217 and 33.0378 and 37.6449 and 33.9313 and 51.5353
- Diffusion of FITC-TAT across bEnd.3 monolayer ([2]; FITC-TAT 10 μM, 4°C, diffusion time 12 h, individual cultures n = 10): 44.603 and 38.3865 and 18.3523 and 26.8326 and 40.1964 and 39.8496 and 31.2218 and 52.2936 and 30.2304 and 54.311
- Diffusion of FITC-TAT across bEnd.3 monolayer ([2]; FITC-TAT 10 μM, 37°C, diffusion time 0 h, individual cultures n = 8): 2.7408 and 2.991 and 8.292 and 8.146 and 7.613 and 9.624 and 9.686 and 9.768
- Diffusion of FITC-TAT across bEnd.3 monolayer ([2]; FITC-TAT 10 μM, 37°C, diffusion time 0.5 h, individual cultures n = 8): 5.546 and 5.194 and 16.5195 and 13.9086 and 14.4213 and 13.3482 and 14.7024 and 14.0517
- Diffusion of FITC-TAT across bEnd.3 monolayer ([2]; FITC-TAT 10 μM, 37°C, diffusion time 1 h, individual cultures n = 8): 8.062 and 7.828 and 16.9226 and 16.4917 and 15.6732 and 12.2867 and 19.4469 and 13.4865
- Diffusion of FITC-TAT across bEnd.3 monolayer ([2]; FITC-TAT 10 μM, 37°C, diffusion time 2 h, individual cultures n = 8): 13.5165 and 10.5024 and 28.7248 and 24.7001 and 24.2495 and 24.3505
- FITC-TAT movement across the endothelial monolayer with cytochalasin D ([2]; cells incubated with 100 μM cytochalasin D, FITC-TAT 10 μM, Fig 4D): increased rather than inhibited
- Effect of lowering the temperature to 4°C on diffusion of FITC-TAT across Transwell inserts ([2]; endothelial monolayers present, FITC-TAT 10 μM, Fig 1B): substantially decreased
- Diffusion of FITC-linked peptide across bEnd.3 monolayer ([2]; peptide 1 μM (Fig 3A), diffusion time 0.1 h, individual cultures n = 4): 16.1034 and 15.6278 and 16.2621 and 16.9227
- Diffusion of FITC-linked peptide across bEnd.3 monolayer ([2]; peptide 1 μM (Fig 3A), diffusion time 4 h, individual cultures n = 4): 33.068 and 35.9601 and 44.67 and 33.2662
- Diffusion of FITC-linked peptide across bEnd.3 monolayer ([2]; peptide 1 μM (Fig 3A), diffusion time 12 h, individual cultures n = 4): 59.5062 and 62.0797 and 69.9514 and 60.3513
- Diffusion of FITC-linked peptide across bEnd.3 monolayer ([2]; peptide 1 μM (Fig 3A), diffusion time 24 h, individual cultures n = 4): 98.4329 and 97.1083 and 108.448 and 96.0109
- Diffusion of FITC-linked peptide across bEnd.3 monolayer ([2]; peptide 3 μM (Fig 3B), diffusion time 0.1 h, individual cultures n = 4): 5.536 and 5.776 and 5.613 and 5.958
- Diffusion of FITC-linked peptide across bEnd.3 monolayer ([2]; peptide 3 μM (Fig 3B), diffusion time 4 h, individual cultures n = 4): 30.6967 and 26.8471 and 24.0637 and 21.038
- Diffusion of FITC-linked peptide across bEnd.3 monolayer ([2]; peptide 3 μM (Fig 3B), diffusion time 12 h, individual cultures n = 4): 69.4896 and 55.4891 and 51.5686 and 64.8124
- Diffusion of FITC-linked peptide across bEnd.3 monolayer ([2]; peptide 3 μM (Fig 3B), diffusion time 24 h, individual cultures n = 4): 112.045 and 93.6163 and 91.1166 and 103.222
- Diffusion of FITC-linked peptide across bEnd.3 monolayer ([2]; peptide 10 μM (Fig 3C), diffusion time 0.1 h, individual cultures n = 4): 1.488 and 1.536 and 1.502 and 1.69
- Diffusion of FITC-linked peptide across bEnd.3 monolayer ([2]; peptide 10 μM (Fig 3C), diffusion time 4 h, individual cultures n = 4): 20.2675 and 19.471 and 18.2115 and 22.8397
- Diffusion of FITC-linked peptide across bEnd.3 monolayer ([2]; peptide 10 μM (Fig 3C), diffusion time 12 h, individual cultures n = 4): 55.3743 and 53.9149 and 46.6389 and 56.9448
- Diffusion of FITC-linked peptide across bEnd.3 monolayer ([2]; peptide 10 μM (Fig 3C), diffusion time 24 h, individual cultures n = 4): 95.2978 and 101.031 and 98.8203 and 104.851
- Diffusion of FITC-linked peptide across bEnd.3 monolayer ([2]; peptide 10 μM alone (Fig 3D), diffusion time 0.1 h, individual cultures n = 3): 1.749 and 1.772 and 1.79
- Diffusion of FITC-linked peptide across bEnd.3 monolayer ([2]; peptide 10 μM alone (Fig 3D), diffusion time 12 h, individual cultures n = 3): 43.9695 and 46.4386 and 47.7244
- Diffusion of FITC-linked peptide across bEnd.3 monolayer ([2]; peptide 10 μM alone (Fig 3D), diffusion time 24 h, individual cultures n = 3): 96.1412 and 98.5343 and 105.324
- Effect of lowering the temperature to 4°C on diffusion of FITC-TAT across Transwell inserts [3]: had no effect
